Laboratory results as given in the supplement of paper PMC10307832.

Key:
Assay in all cases: relative viability (nuclei count vs DMSO), 5 days (fraction); higher = more cells survive
AGI-6780 + Trametinib = compound: O=C(Nc1cccc(C(F)(F)F)c1)Nc1cc(S(=O)(=O)NC2CC2)ccc1-c1ccsc1 [AGI-6780] + CC(=O)Nc1cccc(-n2c(=O)n(C3CC3)c(=O)c3c(Nc4ccc(I)cc4F)n(C)c(=O)c(C)c32)c1 [Trametinib] (partner 0.02 µM)
How it was run: (§1)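 After 5 days of treatment, lung cancer cells in 1536-well plates were fixed and stained in a single step (final 0.05% Triton X-100, 1% formaldehyde, 1 ug/ml Hoechst) and their nuclei counted on 4× images. Treatment had been applied by pin tool the day after seeding as one drug alone or as a fixed anchor-drug dose with five library-drug doses (not always all listed) in √10 steps. Relative viability is the nuclei count of treated wells divided by that of vehicle wells, and values are medians of duplicate plates.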

AGI-6780 + Bortezomib = compound: O=C(Nc1cccc(C(F)(F)F)c1)Nc1cc(S(=O)(=O)NC2CC2)ccc1-c1ccsc1 [AGI-6780] + CC(C)C[C@H](NC(=O)[C@H](Cc1ccccc1)NC(=O)c1cnccn1)B(O)O [Bortezomib] (partner 0.002 µM)
How it was run: as §1

AGI-6780 + Pictilisib = compound: O=C(Nc1cccc(C(F)(F)F)c1)Nc1cc(S(=O)(=O)NC2CC2)ccc1-c1ccsc1 [AGI-6780] + CS(=O)(=O)N1CCN(Cc2cc3nc(-c4cccc5[nH]ncc45)nc(N4CCOCC4)c3s2)CC1 [Pictilisib] (partner 1 µM)
How it was run: as §1

AGI-6780 + Olaparib = compound: O=C(Nc1cccc(C(F)(F)F)c1)Nc1cc(S(=O)(=O)NC2CC2)ccc1-c1ccsc1 [AGI-6780] + O=C(c1cc(Cc2n[nH]c(=O)c3ccccc23)ccc1F)N1CCN(C(=O)C2CC2)CC1 [Olaparib] (partner 8 µM)
How it was run: as §1

NCI-H2405
relative viability (AGI-6780 + Trametinib; first compound 0.253 µM): 0.649
relative viability (AGI-6780 + Trametinib; first compound 0.8 µM): 0.57
relative viability (AGI-6780 + Trametinib; first compound 2.53 µM): 0.492
relative viability (AGI-6780 + Trametinib; first compound 8 µM): 0.583
relative viability (AGI-6780 + Bortezomib; first compound 0.08 µM): 0.972
relative viability (AGI-6780 + Bortezomib; first compound 0.253 µM): 0.978
relative viability (AGI-6780 + Bortezomib; first compound 0.8 µM): 0.925
relative viability (AGI-6780 + Bortezomib; first compound 2.53 µM): 0.798
relative viability (AGI-6780 + Bortezomib; first compound 8 µM): 1.01
relative viability (AGI-6780 + Pictilisib; first compound 0.08 µM): 0.411
relative viability (AGI-6780 + Pictilisib; first compound 0.253 µM): 0.467
relative viability (AGI-6780 + Pictilisib; first compound 0.8 µM): 0.262
relative viability (AGI-6780 + Pictilisib; first compound 8 µM): 0.53
relative viability (AGI-6780 + Olaparib; first compound 0.253 µM): 0.85
relative viability (AGI-6780 + Olaparib; first compound 0.8 µM): 0.776
relative viability (AGI-6780 + Olaparib; first compound 2.53 µM): 0.838
relative viability (AGI-6780 + Olaparib; first compound 8 µM): 0.758

NCI-H3122
relative viability (AGI-6780 + Trametinib; first compound 0.08 µM): 0.212
relative viability (AGI-6780 + Trametinib; first compound 0.253 µM): 0.261
relative viability (AGI-6780 + Trametinib; first compound 0.8 µM): 0.239
relative viability (AGI-6780 + Trametinib; first compound 2.53 µM): 0.208
relative viability (AGI-6780 + Trametinib; first compound 8 µM): 0.329
relative viability (AGI-6780 + Bortezomib; first compound 0.08 µM): 1.11
relative viability (AGI-6780 + Bortezomib; first compound 0.253 µM): 1
relative viability (AGI-6780 + Bortezomib; first compound 0.8 µM): 1.05
relative viability (AGI-6780 + Bortezomib; first compound 2.53 µM): 1.05
relative viability (AGI-6780 + Bortezomib; first compound 8 µM): 0.999
relative viability (AGI-6780 + Pictilisib; first compound 0.08 µM): 0.584
relative viability (AGI-6780 + Pictilisib; first compound 0.253 µM): 0.563
relative viability (AGI-6780 + Pictilisib; first compound 0.8 µM): 0.625
relative viability (AGI-6780 + Pictilisib; first compound 2.53 µM): 0.548
relative viability (AGI-6780 + Pictilisib; first compound 8 µM): 0.62
relative viability (AGI-6780 + Olaparib; first compound 0.08 µM): 0.608
relative viability (AGI-6780 + Olaparib; first compound 0.253 µM): 0.626
relative viability (AGI-6780 + Olaparib; first compound 0.8 µM): 0.725
relative viability (AGI-6780 + Olaparib; first compound 2.53 µM): 0.706
relative viability (AGI-6780 + Olaparib; first compound 8 µM): 0.649

PC-3 [JPC-3]
relative viability (AGI-6780 + Trametinib; first compound 0.253 µM): 0.582
relative viability (AGI-6780 + Trametinib; first compound 0.8 µM): 0.701
relative viability (AGI-6780 + Trametinib; first compound 2.53 µM): 0.744
relative viability (AGI-6780 + Trametinib; first compound 8 µM): 0.626
relative viability (AGI-6780 + Bortezomib; first compound 0.08 µM): 0.816
relative viability (AGI-6780 + Bortezomib; first compound 0.253 µM): 0.796
relative viability (AGI-6780 + Bortezomib; first compound 0.8 µM): 0.753
relative viability (AGI-6780 + Bortezomib; first compound 2.53 µM): 0.856
relative viability (AGI-6780 + Bortezomib; first compound 8 µM): 0.782
relative viability (AGI-6780 + Pictilisib; first compound 0.08 µM): 0.767
relative viability (AGI-6780 + Pictilisib; first compound 0.253 µM): 0.78
relative viability (AGI-6780 + Pictilisib; first compound 0.8 µM): 0.819
relative viability (AGI-6780 + Pictilisib; first compound 2.53 µM): 0.687
relative viability (AGI-6780 + Pictilisib; first compound 8 µM): 0.691
relative viability (AGI-6780 + Olaparib; first compound 0.253 µM): 1.09
relative viability (AGI-6780 + Olaparib; first compound 0.8 µM): 1.11
relative viability (AGI-6780 + Olaparib; first compound 2.53 µM): 1.18
relative viability (AGI-6780 + Olaparib; first compound 8 µM): 0.962

PC-14
relative viability (AGI-6780 + Trametinib; first compound 0.08 µM): 0.802
relative viability (AGI-6780 + Trametinib; first compound 0.253 µM): 0.764
relative viability (AGI-6780 + Trametinib; first compound 0.8 µM): 1.02
relative viability (AGI-6780 + Trametinib; first compound 2.53 µM): 0.731
relative viability (AGI-6780 + Trametinib; first compound 8 µM): 0.752
relative viability (AGI-6780 + Bortezomib; first compound 0.08 µM): 0.899
relative viability (AGI-6780 + Bortezomib; first compound 0.253 µM): 0.71
relative viability (AGI-6780 + Bortezomib; first compound 0.8 µM): 0.917
relative viability (AGI-6780 + Bortezomib; first compound 2.53 µM): 0.793
relative viability (AGI-6780 + Bortezomib; first compound 8 µM): 0.934
relative viability (AGI-6780 + Pictilisib; first compound 0.08 µM): 0.927
relative viability (AGI-6780 + Pictilisib; first compound 0.253 µM): 0.681
relative viability (AGI-6780 + Pictilisib; first compound 0.8 µM): 0.893
relative viability (AGI-6780 + Pictilisib; first compound 2.53 µM): 0.55
relative viability (AGI-6780 + Pictilisib; first compound 8 µM): 0.857
relative viability (AGI-6780 + Olaparib; first compound 0.08 µM): 0.378
relative viability (AGI-6780 + Olaparib; first compound 0.253 µM): 0.282
relative viability (AGI-6780 + Olaparib; first compound 0.8 µM): 0.234
relative viability (AGI-6780 + Olaparib; first compound 2.53 µM): 0.318
relative viability (AGI-6780 + Olaparib; first compound 8 µM): 0.276

RERF-LC-KJ
relative viability (AGI-6780 + Trametinib; first compound 0.08 µM): 0.859
relative viability (AGI-6780 + Trametinib; first compound 0.253 µM): 0.862
relative viability (AGI-6780 + Trametinib; first compound 0.8 µM): 0.828
relative viability (AGI-6780 + Trametinib; first compound 2.53 µM): 0.674
relative viability (AGI-6780 + Trametinib; first compound 8 µM): 0.774
relative viability (AGI-6780 + Bortezomib; first compound 0.08 µM): 1.06
relative viability (AGI-6780 + Bortezomib; first compound 0.253 µM): 1.16
relative viability (AGI-6780 + Bortezomib; first compound 0.8 µM): 1.15
relative viability (AGI-6780 + Bortezomib; first compound 2.53 µM): 0.798
relative viability (AGI-6780 + Bortezomib; first compound 8 µM): 1.09
relative viability (AGI-6780 + Pictilisib; first compound 0.08 µM): 0.559
relative viability (AGI-6780 + Pictilisib; first compound 0.253 µM): 0.537
relative viability (AGI-6780 + Pictilisib; first compound 0.8 µM): 0.604
relative viability (AGI-6780 + Pictilisib; first compound 2.53 µM): 0.418
relative viability (AGI-6780 + Pictilisib; first compound 8 µM): 0.467
relative viability (AGI-6780 + Olaparib; first compound 0.08 µM): 0.928
relative viability (AGI-6780 + Olaparib; first compound 0.253 µM): 0.892
relative viability (AGI-6780 + Olaparib; first compound 0.8 µM): 0.943
relative viability (AGI-6780 + Olaparib; first compound 2.53 µM): 0.906
relative viability (AGI-6780 + Olaparib; first compound 8 µM): 0.878

SK-LU-1
relative viability (AGI-6780 + Trametinib; first compound 0.08 µM): 0.614
relative viability (AGI-6780 + Trametinib; first compound 0.253 µM): 0.537
relative viability (AGI-6780 + Trametinib; first compound 0.8 µM): 0.368
relative viability (AGI-6780 + Trametinib; first compound 2.53 µM): 0.651
relative viability (AGI-6780 + Trametinib; first compound 8 µM): 0.497
relative viability (AGI-6780 + Bortezomib; first compound 0.08 µM): 1.25
relative viability (AGI-6780 + Bortezomib; first compound 0.253 µM): 1.45
relative viability (AGI-6780 + Bortezomib; first compound 0.8 µM): 0.965
relative viability (AGI-6780 + Bortezomib; first compound 2.53 µM): 1.12
relative viability (AGI-6780 + Bortezomib; first compound 8 µM): 1.4
relative viability (AGI-6780 + Pictilisib; first compound 0.08 µM): 0.496
relative viability (AGI-6780 + Pictilisib; first compound 0.253 µM): 0.57
relative viability (AGI-6780 + Pictilisib; first compound 0.8 µM): 0.437
relative viability (AGI-6780 + Pictilisib; first compound 2.53 µM): 0.435
relative viability (AGI-6780 + Pictilisib; first compound 8 µM): 0.752
relative viability (AGI-6780 + Olaparib; first compound 0.08 µM): 0.506
relative viability (AGI-6780 + Olaparib; first compound 0.253 µM): 0.482
relative viability (AGI-6780 + Olaparib; first compound 0.8 µM): 0.349
relative viability (AGI-6780 + Olaparib; first compound 2.53 µM): 0.402
relative viability (AGI-6780 + Olaparib; first compound 8 µM): 0.456

SW 1573
relative viability (AGI-6780 + Trametinib; first compound 0.08 µM): 0.567
relative viability (AGI-6780 + Trametinib; first compound 0.253 µM): 0.533
relative viability (AGI-6780 + Trametinib; first compound 0.8 µM): 0.489
relative viability (AGI-6780 + Trametinib; first compound 8 µM): 0.602
relative viability (AGI-6780 + Bortezomib; first compound 0.08 µM): 1.01
relative viability (AGI-6780 + Bortezomib; first compound 0.253 µM): 1.1
relative viability (AGI-6780 + Bortezomib; first compound 0.8 µM): 0.915
relative viability (AGI-6780 + Bortezomib; first compound 2.53 µM): 0.69
relative viability (AGI-6780 + Bortezomib; first compound 8 µM): 0.879
relative viability (AGI-6780 + Pictilisib; first compound 0.08 µM): 0.506
relative viability (AGI-6780 + Pictilisib; first compound 0.253 µM): 0.518
relative viability (AGI-6780 + Pictilisib; first compound 0.8 µM): 0.514
relative viability (AGI-6780 + Pictilisib; first compound 2.53 µM): 0.374
relative viability (AGI-6780 + Pictilisib; first compound 8 µM): 0.543
relative viability (AGI-6780 + Olaparib; first compound 0.08 µM): 0.578
relative viability (AGI-6780 + Olaparib; first compound 0.253 µM): 0.481
relative viability (AGI-6780 + Olaparib; first compound 0.8 µM): 0.525
relative viability (AGI-6780 + Olaparib; first compound 2.53 µM): 0.426
relative viability (AGI-6780 + Olaparib; first compound 8 µM): 0.465

UMC-11
relative viability (AGI-6780 + Trametinib; first compound 0.08 µM): 0.657
relative viability (AGI-6780 + Trametinib; first compound 0.253 µM): 0.708
relative viability (AGI-6780 + Trametinib; first compound 0.8 µM): 0.812
relative viability (AGI-6780 + Trametinib; first compound 8 µM): 0.902
relative viability (AGI-6780 + Bortezomib; first compound 0.08 µM): 0.671
relative viability (AGI-6780 + Bortezomib; first compound 0.253 µM): 0.712
relative viability (AGI-6780 + Bortezomib; first compound 0.8 µM): 1.06
relative viability (AGI-6780 + Bortezomib; first compound 8 µM): 1.04
relative viability (AGI-6780 + Pictilisib; first compound 0.08 µM): 0.822
relative viability (AGI-6780 + Pictilisib; first compound 0.253 µM): 0.837
relative viability (AGI-6780 + Pictilisib; first compound 0.8 µM): 1.08
relative viability (AGI-6780 + Pictilisib; first compound 8 µM): 0.887
relative viability (AGI-6780 + Olaparib; first compound 0.08 µM): 0.393
relative viability (AGI-6780 + Olaparib; first compound 0.253 µM): 0.38
relative viability (AGI-6780 + Olaparib; first compound 0.8 µM): 0.4
relative viability (AGI-6780 + Olaparib; first compound 8 µM): 0.434
